The values below come from patent publication US20070248488A1, “METHOD AND APPARATUS FOR REDUCING MICROORGANISMS IN WATER” (VORTEX CORPORATION, priority 2006, published 2007).

In one test the test system is MS-2 coliphage. Kind of test: Ozone and UV disinfection of MS-2 phage in dechlorinated tap water. It counts as cell-based. The following applies: Ozone Level (OR) 400 mV, exposure time 5 min; UV Dose 0 mJ/cm^2; room temperature, pH 7.6; MS-2 3.3×10^7 pfu/mL. The procedure:
Propagation and assay of MS-2 coliphage was performed in accordance with Thurston-Enriquez et al. (2003a). Expected UV inactivation was derived from the work of Thurston-Enriquez et al. (2003a).
Ozone was generated by a corona discharge generator and injected into 4 L of dechlorinated tap water at room temperature and pH 7.6. The water was raised and maintained to an Oxidation Reduction Potential (OR) of 400 mV. On addition of the MS-2 to a concentration of 3.3×10^7 pfu/mL, the OR was maintained at 400 mV for five minutes. At the five minute mark, samples were drawn for MS-2 assay and the water was pumped through a UV (low pressure, high output UV lamp 14) at two gallons per minute. The UV dose was calibrated and known to be 12 mJ/cm^2. Following UV treatment, samples were taken for MS-2 assay. A duplicate trial was performed.

Test [1] has as its system Adenovirus 2 (ATCC# VR-846). The test can be described thus: Adenovirus inactivation in de-chlorinated tap water (TCID50 on PLC cells). It counts as cell-based. Conditions: Initial titer 1.33 × 10^6 TCID50/ml; 2 L/minute; UV approx. 48 mJ/cm^2; ozone about 0.08 mg/L.
Excerpt: It was capable of processing 2 liters per minute of water. To study the effects of UV light only, the ozone generated by the apparatus was diverted away and not injected into the water stream. The UV dose (mJ/cm^2) was previously calibrated and found to be approximately 48 mJ/cm^2 as determined by MS-2 coliphagae biodosimetry. To study the effects of ozone only, the UW lamp was shrouded with a stainless steel sleeve to prevent any water from being exposed to the UW light from lamp 14. The ozone dose was measured in all cases to be about 0.08 mg/L. To study the combination of UV light with the ozone, the ozone was injected at the base of vessel 22 via a venturi as previously described.
Log Reductions in microorganisms were calculated as follows: Log 10 Reduction=Log10[Final titer]−Log10[Initial titer]
Adenovirus 2 (ATCC# VR-846) was obtained from the American Type Culture Collection. It was maintained on PLC (Primary Liver Carcinoma, ATCC# CRL-8024) cell line monolayers with MEM (Minimal essential Medium modified with Earle's salts) containing 2$ FBS (Fetal Bovine Serum) at an incubation temperature of 35° C. with 5% CO2. Viruses were purified by centrifugation (7756×g) to remove cell debris followed by polyethylene glycol (9% PEG, 0.5 mol/L NaCl) precipitation. […]
The next test deals with adenoviruses. Conditions: Ct value of 0.6 mg/L min, 5° C.; cited from earlier work.
The subject of test [2] is heterotrophic plate count. Conditions: reduced from 960 cfu/mL; raw water source for drinking water plant; cited from earlier work.
The test system of test [3] is Naegleria fowleri (ATCC #30462) cysts. Kind of test: Test for destruction of Naegleria fowleri in de-chlorinated tap water (MPN viability). It is filed as cell-based. The following applies: Initial titer 2.42 × 10^3 cysts/mL, 2 L/minute, UV approx. 48 mJ/cm^2, ozone about 0.08 mg/L.

Several values for one entry are separate records, joined by “and”; a condition that tells them apart may be missing. Equal entries are not always repeated.

As to `O=[O+][O-]` [Ozone, ozone], in the test with MS-2 coliphage, the “log Inactivation” value was 1 log and 1.06 log and 1.00 log. Moreover, the results for the “Final Titer” value in test [1] and in test [3] were 2.08 × 10^5 TCID50/ml and 473 mL⁻¹, respectively. In addition, the entries for the “Log10 Reduction” value in test [1], in test [3] and in test [3] (listed as ozone) were 0.81, “.071” and 0.71, respectively. For the same compound, in the test on adenoviruses, the inactivation of adenoviruses result is “more than 4 logs”. Further, the “heterotrophic plate count after ozone disinfection stage” value in test [2] was 680 cfu/mL.
